Here are results for 39 molecules from US8962674B2 (Tokyo Institute of Technology, priority 2006, dated 2015).

The structures appear in SMILES notation.

As usually defined, the melting point is the temperature, or range, at which the solid turns liquid.

`COc1cccc(O)c1/C=C/C(=O)CC(=O)/C=C/c1ccc(O)cc1` [CU275, (1E,6E)-1-(2-hydroxy-6-methoxyphenyl)-7-(4-hydroxyphenyl)hepta-1,6-diene-3,5-dione] returned a melting point of 94 to 99 °C.
For `COc1ccc(/C=C/C(=O)CC(=O)/C=C/c2cc(Cl)cc(Cl)c2O)cc1O` [CU276, (1E,6E)-1-(3,5-dichloro-2-hydroxyphenyl)-7-(3-hydroxy-4-methoxyphenyl)hepta-1,6-diene-3,5-dione] the value was 212 to 214 °C; for `CCN(CC)c1ccc(/C=C/C(=O)CC(=O)/C=C/c2ccc(O)c(OC)c2)c(O)c1` [CU277, (1E,6E)-1-(4-diethylamino-2-hydroxyphenyl)-7-(4-hydroxy-3-methoxyphenyl)hepta-1,6-diene-3,5-dione], 89 to 92 °C.
For `CCN(CC)c1ccc(/C=C/C(=O)CC(=O)/C=C/c2ccc(OC)c(O)c2)c(O)c1` [CU278, (1E,6E)-1-(4-diethylamino-2-hydroxyphenyl)-7-(3-hydroxy-4-methoxyphenyl)hepta-1,6-diene-3,5-dione] the value was 101 to 108 °C; for `COc1cc(/C=C/C(=O)CC(=O)/C=C/c2c(O)cccc2OC)ccc1O` [CU279, (1E,6E)-1-(2-hydroxy-6-methoxyphenyl)-7-(4-hydroxy-3-methoxyphenyl)hepta-1,6-diene-3,5-dione], 161 to 164 °C; for `COc1ccc(/C=C/C(=O)CC(=O)/C=C/c2c(O)cccc2OC)cc1O` [CU280, (1E,6E)-1-(2-hydroxy-6-methoxyphenyl)-7-(3-hydroxy-4-methoxyphenyl)hepta-1,6-diene-3,5-dione], 181 to 185 °C.
For `O=C(/C=C/c1ccc(O)cc1)CC(=O)/C=C/c1cc(Cl)cc(Cl)c1O` [CU281, (1E,6E)-1-(3,5-dichloro-2-hydroxyphenyl)-7-(4-hydroxyphenyl)hepta-1,6-diene-3,5-dione] the value was 199 to 201 °C; for `COc1ccc(/C=C/C(=O)CC(=O)/C=C/c2ccc(OC)c(O)c2)c(O)c1` [CU282, (1E,6E)-1-(2-hydroxy-4-methoxyphenyl)-7-(3-hydroxy-4-methoxyphenyl)hepta-1,6-diene-3,5-dione], 147 to 152 °C.
For `COCOc1cccc(O)c1/C=C/C(=O)CC(=O)/C=C/c1ccc(OC)c(O)c1` [CU313, (1E,6E)-1-[2-hydroxy-6-(methoxymethoxy)phenyl]-7-(3-hydroxy-4-methoxyphenyl)hepta-1,6-diene-3,5-dione], the melting point was 89 to 93 °C.
`COC(=O)c1ccc(/C=C/C(=O)CC(=O)/C=C/c2ccc(O)c(OC)c2)cc1` [CU316, (1E,6E)-1-(4-hydroxy-3-methoxyphenyl)-7-[4-(methoxycarbonyl)phenyl]hepta-1,6-diene-3,5-dione] gave a melting point of 149 to 152 °C.
`O=C(/C=C/c1ccc(O)cc1)CC(=O)/C=C/c1cc2ccccc2o1` [CU321, (1E,6E)-1-(benzofuran-2-yl)-7-(4-hydroxyphenyl)hepta-1,6-diene-3,5-dione]: the melting point fell in the range of 173 to 178 °C.
For `O=C(/C=C/c1ccc(O)cc1)CC(=O)/C=C/c1cccc2cccnc12` [CU323, (1E,6E)-1-(4-hydroxyphenyl)-7-(quinolin-8-yl)hepta-1,6-diene-3,5-dione] the value was 112 to 117 °C.
Molecule `O=C(/C=C/c1ccc(O)cc1)CC(=O)/C=C/c1cccc2ncccc12` [CU324, (1E,6E)-1-(4-hydroxyphenyl)-7-(quinolin-5-yl)hepta-1,6-diene-3,5-dione] yielded a melting point of 272 to 275 °C.
Next, `O=C(/C=C/c1ccc(O)cc1)CC(=O)/C=C/c1ccc(-c2ccccn2)cc1` [CU328, (1E,6E)-1-(4-hydroxyphenyl)-7-[4-(pyridin-2-yl)phenyl]hepta-1,6-diene-3,5-dione]: 229 to 232 °C; `O=C(/C=C/c1ccc(O)cc1)CC(=O)/C=C/c1ccc(-n2ccnc2)cc1` [CU329, (1E,6E)-1-(4-hydroxyphenyl)-7-[4-(1H-imidazol-1-yl)phenyl]hepta-1,6-diene-3,5-dione]: 255 to 260 °C; `O=C(/C=C/c1ccc(O)cc1)CC(=O)/C=C/c1cn(Cc2ccccc2)c2ccccc12` [CU331, (1E,6E)-1-(1-benzyl-1H-indol-3-yl)-7-(4-hydroxyphenyl)hepta-1,6-diene-3,5-dione]: 243 to 249 °C.
Take `O=C(/C=C/c1ccc(O)cc1)CC(=O)/C=C/c1ccc(N2CCN(Cc3ccccc3)CC2)nc1` [CU332, (1E,6E)-1-[6-(4-benzylpiperazin-1-yl)pyridin-3-yl]-7-(4-hydroxyphenyl)hepta-1,6-diene-3,5-dione]: the melting point was 132 to 138 °C.
For `Cc1ccc(Oc2ccc(/C=C/C(=O)CC(=O)/C=C/c3ccc(O)cc3)cn2)cc1` [CU333, (1E,6E)-1-(4-hydroxyphenyl)-7-[6-(4-methylphenoxy)pyridin-3-yl]hepta-1,6-diene-3,5-dione] the value was 167 to 172 °C; for `O=C(/C=C/c1ccc(O)cc1)CC(=O)/C=C/c1cccnc1N1CCOCC1` [CU337, (1E,6E)-1-(4-hydroxyphenyl)-7-(2-morpholinopyridin-3-yl)hepta-1,6-diene-3,5-dione], 159 to 165 °C.
With `Cc1ccc(-n2cccc2/C=C/C(=O)CC(=O)/C=C/c2ccc(O)cc2)cc1` [CU338, (1E,6E)-1-(4-hydroxyphenyl)-7-[1-(4-methylphenyl)-1H-pyrrol-2-yl]hepta-1,6-diene-3,5-dione], the melting point is 144 to 150 °C.
Turning to `Cc1ccc(Oc2ncccc2/C=C/C(=O)CC(=O)/C=C/c2ccc(O)cc2)cc1` [CU340, (1E,6E)-1-(4-hydroxyphenyl)-7-[2-(4-methylphenoxy)pyridin-3-yl]hepta-1,6-diene-3,5-dione], the melting point was 180 to 185 °C.
For `O=C(/C=C/c1ccc(O)cc1)CC(=O)/C=C/c1ccc2[nH]nnc2c1` [CU346, (1E,6E)-1-(1H-benzotriazol-5-yl)-7-(4-hydroxyphenyl)hepta-1,6-diene-3,5-dione] the value was 211 to 216 °C; for `O=C(/C=C/c1ccc(O)cc1)CC(=O)/C=C/c1ccc2nccnc2c1` [CU348, (1E,6E)-1-(4-hydroxyphenyl)-7-(quinoxalin-6-yl)hepta-1,6-diene-3,5-dione], 251 to 255 °C.
Next, `O=C(/C=C/c1ccc(O)cc1)CC(=O)/C=C/c1ccc2[nH]ncc2c1` [CU349, (1E,6E)-1-(4-hydroxyphenyl)-7-(1H-indazol-5-yl)hepta-1,6-diene-3,5-dione]: 148 to 152 °C; `O=C(/C=C/c1ccc2c(c1)OCCO2)CC(=O)/C=C/c1ccc2c(c1)OCCO2` [CU356, (1E,6E)-1,7-bis(1,4-benzodioxan-6-yl)hepta-1,6-diene-3,5-dione]: 184 to 187 °C; `COc1cc(O)cc(/C=C/C(=O)CC(=O)/C=C/c2cc(O)cc(OC)c2)c1` [CU358, (1E,6E)-1,7-bis(3-hydroxy-5-methoxyphenyl)hepta-1,6-diene-3,5-dione]: 147 to 151 °C.
For `O=C(/C=C/c1ccc(O)cc1Cl)CC(=O)/C=C/c1ccc(O)cc1Cl` [CU362, (1E,6E)-1,7-bis(2-chloro-4-hydroxyphenyl)hepta-1,6-diene-3,5-dione] the value was 248 to 254 °C; for `COc1c(O)cccc1/C=C/C(=O)CC(=O)/C=C/c1cccc(O)c1OC` [CU363, (1E,6E)-1,7-bis(3-hydroxy-2-methoxyphenyl)hepta-1,6-diene-3,5-dione], 62 to 65 °C.
As for `O=C(/C=C/c1cccnc1N1CCOCC1)CC(=O)/C=C/c1cccnc1N1CCOCC1` [CU366, (1E,6E)-1,7-bis(2-morpholinopyridin-3-yl)hepta-1,6-diene-3,5-dione], the melting point fell in the range of 192 to 195 °C.
For `O=C(/C=C/c1ccc(Oc2ccccc2)cc1)CC(=O)/C=C/c1ccc(Oc2ccccc2)cc1` [CU370, (1E,6E)-1,7-bis(4-phenoxyphenyl)hepta-1,6-diene-3,5-dione] the value was 193 to 196 °C.
For `Cc1ccc(Oc2ccc(/C=C/C(=O)CC(=O)/C=C/c3ccc(Oc4ccc(C)cc4)nc3)cn2)cc1` [CU378, (1E,6E)-1,7-bis[6-(4-methylphenoxy)pyridin-3-yl]hepta-1,6-diene-3,5-dione] the value was 185 to 190 °C.
Next, `COc1ccc(O)cc1/C=C/C(=O)CC(=O)/C=C/c1cc(O)ccc1OC` [CU380, (1E,6E)-1,7-bis(5-hydroxy-2-methoxyphenyl)hepta-1,6-diene-3,5-dione]: 188 to 196 °C; `O=C(/C=C/c1ccc2[nH]ccc2c1)CC(=O)/C=C/c1ccc2[nH]ccc2c1` [CU382, (1E,6E)-1,7-bis(1H-indol-5-yl)hepta-1,6-diene-3,5-dione]: 263 to 266 °C; `O=C(/C=C/c1cccc2ncccc12)CC(=O)/C=C/c1cccc2ncccc12` [CU384, (1E,6E)-1,7-bis(quinolin-5-yl)hepta-1,6-diene-3,5-dione]: 170 to 174 °C.
Consider `O=C(/C=C/c1cccnc1N1CCN(Cc2ccccc2)CC1)CC(=O)/C=C/c1cccnc1N1CCN(Cc2ccccc2)CC1` [CU385, (1E,6E)-1,7-bis[2-(4-benzylpiperazin-1-yl)pyridin-3-yl]hepta-1,6-diene-3,5-dione], for which the melting point was 150 to 155 °C.
In turn, `CN1CCN(c2ccc(/C=C/C(=O)CC(=O)/C=C/c3ccc(N4CCN(C)CC4)cc3)cc2)CC1` [CU386, (1E,6E)-1,7-bis[4-(4-methylpiperazin-1-yl)phenyl]hepta-1,6-diene-3,5-dione] displayed a melting point of 212 to 217 °C.
For `O=C(/C=C/c1ccc(O)c(Cl)c1)CC(=O)/C=C/c1ccc(O)c(Cl)c1` [CU387, (1E,6E)-1,7-bis(3-chloro-4-hydroxyphenyl)hepta-1,6-diene-3,5-dione] the value was 203 to 208 °C; for `Cc1ccc(-n2cccc2/C=C/C(=O)CC(=O)/C=C/c2cccn2-c2ccc(C)cc2)cc1` [CU389, (1E,6E)-1,7-bis[1-(4-methylphenyl)-1H-pyrrol-2-yl]hepta-1,6-diene-3,5-dione], 151 to 155 °C; for `COc1cccc(OC)c1/C=C/C(=O)CC(=O)/C=C/c1c(OC)cccc1OC` [CU390, (1E,6E)-1,7-bis(2,6-dimethoxyphenyl)hepta-1,6-diene-3,5-dione], 180 to 184 °C.
